From patent US20080262228A1, “Metabolites of 5-fluoro-8- quinoline and methods of preparation and uses thereof” (Wyeth, priority 2006, published 2008)

What was measured:
[1] = Metabolite characterization in cryopreserved hepatocytes; details: hepatocyte incubations, 20 μM; R, rat; D, dog; H, human; Media = decomposition product observed in media control
Protocol: Pooled male rat, dog, and mixed male and female human cryopreserved hepatocytes were used in this study. The cryopreserved hepatocytes (two vials from each species; three to five million viable cells per vial) were thawed in a 37° C. water bath with gentle shaking until the ice was almost melted. The suspensions from the two individual vials of the same species were immediately transferred to a 50 mL centrifuge tube containing pre-warmed thawing media at 37° C. with gentle handshaking to prevent the cells from settling. The cell suspension was centrifuged at 50 g for 5 min at 4° C. Supernatants were discarded and the pellets were resuspended in pre-warmed incubation media (8 mL) at 37° C. […] [^14C]COMPOUND I (20 μM) was incubated in a 12-well plate containing hepatocyte suspensions at 1.0 mL per well in duplicate (≧1 million viable cells/well) at 37° C. for 1 or 4 hr in the presence of 5% CO2:95% O2. Control incubations without hepatocytes were also run under the same conditions. Positive controls containing [^14C]7-ethoxycoumarin (100 μM) were also incubated under the same conditions, but only for 1 hr. At the end of the incubations, reactions were stopped by adding acetonitrile with 2% acetic acid (1 mL), mixed for 10 min, followed by centrifugation at 4000 rpm for 10 min at 4° C. Aliquots (50 μL) of supernatants were analyzed by HPLC with UV and radioactivity flow detection for metabolite profiling, and by LC/MS for metabolite identification as described in below. To determine extraction recovery, aliquots (20 μL) of supernatants were analyzed for radioactivity content utilizing a Packard Tri-Carb Model 3100 TR liquid scintillation counter and 5 mL of Ultima Gold.
The HPLC system used for mass spectrometric analysis was a Waters Alliance model 2695 HPLC system (Waters Corp). It was equipped with a built-in autosampler and a model 996 diode array UV detector. The UV detector was set to monitor 210-400 nm. The HPLC conditions were the same as those described hereinabove with the following exceptions. […]

[2] = In vivo metabolism and excretion of [14C]COMPOUND I in male beagle dogs, single oral 3 mg/kg dose; parameters: species or system dog; details: 3 mg/kg oral
Protocol: Dose preparation, animal dosing, and specimen collection were performed at Wyeth Research, Collegeville, Pa. The vehicle contained 2% (w/v) polysorbate 80, NF and 0.5% (w/v) methylcellulose (4000 cps) in water. [^14C]COMPOUND I trisuccinate salt (50.25 mg) and non-labeled COMPOUND I trisuccinate salt (331.9 mg) were suspended in 72 mL of the vehicle by grinding with a mortar and a pestle. The target [^14C]COMPOUND I concentration was approximately 3 mg/mL as free base and 48 μCi/mL with a target specific activity of 16 μCi/mg. Three pre- and post-dose aliquots (100 μL) were taken for the determination of radiochemical purity, drug and radioactivity concentrations and specific activity (see below).
Four male beagle dogs, weighing from 9.4 to 11.5 kg at the time of dosing, were from an in-house colony. Non-fasted dogs were given a single 3 mg/kg (approximately 48 μCi/kg) dose of [^14C]COMPOUND I at a volume of 1 mL/kg via intragastric gavage. Animals were provided Purina dog chow and water ad libitum, and were housed individually in metabolic cages.
Blood samples were collected from the jugular vein at 1, 4, 8, 24, 48, 72 and 120 hr after dose administration into tubes containing potassium EDTA as the anticoagulant and then placed on ice. Aliquots of 200 μL were removed and plasma was harvested immediately from the remaining blood by centrifugation at 4° C. Urine samples were collected into tubes on dry ice from 0-24 and 24-48 hr, and then at ambient temperature at 24 hr intervals for 7 days post-dose. Fecal samples were collected at 24 hr intervals for 7 days post-dose at room temperature. Cage rinses were collected daily by rinsing each cage with approximately 500 mL of 30% ethanol in water. The dose aliquots and biological specimens were stored at approximately −70° C. until analysis.
Triplicate aliquots of diluted dose (20 μL), dose fractions (10 μL) and plasma (50 μL), urine (200 μL) and cage wash (500 μL) from individual dogs were analyzed for radioactivity content. The samples were assayed in a Tri-Carb Model 3100TR liquid scintillation counter (Perkin Elmer) using 5 mL of Ultima Gold scintillation cocktail.
Fecal samples from individual dogs were weighed and homogenized in water at a volume-to-weight ratio of about 4:1 with a Silverson sealed-unit homogenizer at ambient temperature. Triplicate aliquots of whole blood (50 μL) and fecal homogenates (approximately 0.2 g) were placed into Combusto-cones with Combusto-pads and allowed to dry overnight. Samples were combusted with a model 307 Tri-Carb Sample Oxidizer, equipped with an Oximate-80 Robotic Automatic Sampler (Perkin Elmer). The liberated ^14CO2 was trapped with Carbo-Sorb® E carbon dioxide absorber, mixed with PermaFluor® E+liquid scintillation cocktail, and counted in a Tri-Carb Model 3100 TR/LL liquid scintillation counter.
Plasma samples were pooled by mixing equal volumes from four animals at each time point (1, 4, 8 and 24 hr). Aliquots of 2.0 mL of pooled plasma were mixed with 2.0 mL of acetonitrile, placed on ice for about 10 min, and then centrifuged at 4° C. The supernatant was transferred to a clean tube. The protein pellets were extracted two more times with 2.0 mL of acetonitrile. The supernatants from precipitation and extraction of each sample were pooled, mixed, and evaporated at 22° C. under nitrogen in a TurboVap LV evaporator (Caliper Life Sciences, Hopkinton, Mass.) to about 0.8 mL. The concentrated extract was centrifuged, the supernatant volume measured and the extraction efficiency was determined by analyzing duplicate 10 μL aliquots for radioactivity concentrations. For metabolite profiling, an aliquot of the supernatant (200 μL) was injected onto the HPLC column as described hereinbelow, and fractions were collected at 20 second intervals into 96-well Lumaplates (Perkin Elmer).

Source [1]: All
Source ([2]; P, plasma, F, feces): P, F
percent of total fecal radioactivity ([2]; pooled 0-24 hr fecal sample): 1.2%
percent of total fecal radioactivity ([2]; pooled 24-48 hr fecal sample): 6.7%
percent of total plasma radioactivity ([2]; pooled plasma, over 24 hr post-dose): 71-78%
SMILES: COc1cc(N2CCN(C3CCN(c4ccc(F)c5cccnc45)CC3)CC2)c2ncccc2c1 [COMPOUND I, 5-Fluoro-8-{4-[4-(6-methoxyquinolin-8-yl)piperazin-1-yl]piperidin-1-yl}quinoline]
